Laboratory results: publication PMC3438169 (PLoS ONE, 2012)
*1 amine or outer side, *2 acyl side, *3 side chain or, on linkers, in order; H or OH if unused. Where a SMILES comes first, the peptide text is derived from it. [ ]: non-standard residue; d: D form. dAla(ψthiazole) = C[C@@H](N[*:1])c1nc(C(=O)[*:2])cs1; Trp(4-OMe) = COc1cccc2[nH]cc(C[C@H](N)C(=O)O)c12; dAbu = CC[C@@H](N)C(=O)O; Dha = C=C(N)C(=O)O; Sar = CNCC(=O)O

Legend:
[1] = test system: B. multivorans; experiment: Broth microdilution susceptibility to argyrin B, B. multivorans strains; type: cell-based
[2] = test system: Cox4-GFP labeled mitochondria; experiment: Microscopy of mitochondrial morphology (Cox4-GFP); type: cell-based, S. cerevisiae; settings: 3× IC30 (10 µM on YPEG), 30 minutes, ethanol/glycerol
Procedure: BY4741 cells containing a genomic COX4-GFP fusion where grown to mid-log phase in glucose and ethanol/glycerol media and incubated with the corresponding concentrations of compound for 30 minutes. Aliquots where spotted on microscopy slides and directly imaged on a Zeiss Axiovert 200Mot microscope equipped with a AxioCam MRm digital camera using the Plan-Neofluar 100×, 1.3 oil PH3 objective (Carl Zeiss, Feldbach, Switzerland). A z-stack consisting of 3 images spaced by […] in the filterset 38 (eGFP) channel and a phase-contrast image where acquired. False colors where applied to the GFP images (green) and phase contrast (blue) and the images merged into one plane and scaled to 8-bit. Representative, individual cells where selected and assembled into a panel using Adobe Photoshop (Adobe Systems Inc.).

[3] = test system: HCT116; experiment: Cell viability (CellTiter-Glo), HCT116 with siRNA or mEF-G1 variants; type: cell-based, human; settings: 7 days
Procedure: HCT116 (ATCC, CCL-247) and RKO (ATCC, CRL-2577) cell lines were maintained in a humidified incubator at 37°C and 5% CO2 in RPMI1640 supplemented with 10% FBS. Cell viability was determined using the CellTiter-Glo luminescent cell viability assay (Promega). […] Subsequently, 40 µl of CellTiter-Glo reagent was added to each well and luminescence recorded on an Envision plate reader (Perkin Elmer). Each treatment condition was tested in triplicate and compared to an equivalent volume of DMSO as control.
Non-targeting (NT) or GFM1 siRNA pools were obtained from Dharmacon (ON-TARGETplus SMART pool D-001810 and L-013685). HCT116 and RKO cells were reverse transfected in 6-well plates using RNAiMax (Invitrogen) and 25 nM siRNA. After 2 days, cells were harvested by trypsinization and re-plated into 6-well plates for western blot analysis or into 384-well plates for compound treatments and cell viability determination using CellTiter-Glo as described above.
The human GFM1 cDNA (encoding mEF-G1, Table 2) was mutagenized in pENTR221 (Invitrogen) using QuikChangeII XL site-directed mutagenesis (Stratagene). The following point mutations were introduced: C1355T (encoding S452L), C1481T (encoding S494F) and T2078A (encoding L693Q). The GFM1 cDNAs were then subcloned into the mammalian expression vector pLenti4/TO/V5 using LR clonase II (Invitrogen) and sequence-verified. The pLenti4 constructs were then co-transfected with a lentiviral plasmid mix (encoding LP1, LP2 and VSV-G) into 293T cells, and viral particles were harvested after 72 h and used to infect HCT116 and RKO cells. Stable cell lines were generated by selection with 400 µg/ml Zeocin and plated into 6-well plates for western blot analysis or into 384-well plates for compound treatments and cell viability determination using CellTiter-Glo as described above.

In the case of C=C1NC(=O)CN(C)C(=O)CNC(=O)[C@H](Cc2c[nH]c3cccc(OC)c23)NC(=O)[C@H](Cc2c[nH]c3ccccc23)NC(=O)c2csc(n2)[C@@H](C)NC(=O)[C@@H](CC)NC1=O [argyrin B] (cyclo([dAbu][dAla(ψthiazole)]W[Trp(4-OMe)]G[Sar][Dha])), the “Susceptibility to argyrin B” value ([1]; B. multivorans CDA0079 (FusA1 P484R)) is reported as greater than 32 µg/mL, the “Susceptibility to argyrin B” value ([1]; B. multivorans CDA0080 (FusA1 S415L)) is reported as greater than 32 µg/mL and the “Susceptibility to argyrin B” value ([1]; B. multivorans CDA0093 (FusA1 S415W)) is reported as greater than 32 µg/mL. The “Susceptibility to argyrin B” value ([1]; B. multivorans CDA0094 (FusA1 L656P)) was greater than 32 µg/mL, the “Susceptibility to argyrin B” value ([1]; B. multivorans NB49004 (clinical isolate)) was 1 µg/mL and the “Mitochondrial morphology (in words)” value [2] was “mitochondrial morphology defects (fragmentation)”. For the same molecule, the “Lowering of IC50 by knock down of mEF-G1” value ([3]; HCT116, GFM1 siRNA, CellTiter Glo) was “circa 9.6 fold”, the “Decrease of susceptibility on expression of mEF-G1 L693Q” value ([3]; HCT116, mEF-G1 L693Q) was 4.7 fold and the “Sensitivity change on expression of mEF-G1 S452L and S494F (in words)” value ([3]; HCT116, mEF-G1 S452L and S494F) was “only marginal effects”. For the same molecule, the “Sensitivity change on overexpression of mEF-G1 WT (in words)” value ([3]; HCT116, mEF-G1 WT stable overexpression) was “did not alter the argyrin B-sensitivity”.
